The subject of data set [1] is Plasmodium falciparum Pf3D7^0087/N9. The data set can be described thus: P. falciparum in vivo efficacy assay (humanised mouse model). Particulars: NODscidIL2Rγ mice engrafted with human erythrocytes; for ED90 mean: parasitemia by microscopy and flow cytometry; for AUCED90 mean: blood exposure (AUC0-23h after first dose) at ED90. As to the method:
Antimalarial in vivo efficacy was determined using the P. falciparum mouse model following the procedure described in: Jimenez-Díaz, M. B., Mulet, T., Viera, S., Gómez, V., Garuti, H., Ibañez, J., Alvarez-Doval, A., Shlutz, D. L., Martinez, A., Improved Murine Model Of Malaria Using Plasmodium falciparum (Competent Strains and Non-Myelodepleted NOD-scid IL2R_null Mice Engrafted with Human Erythrocytes) Antimicrob. Agents Chemother 2009, 53 (10), 4533-4536.
The goal of the study was to assess the therapeutic efficacy of the examples against Plasmodium falciparum Pf3D7^0087/N9 growing in peripheral blood of NODscidIL2Ry^0087/N9 mice engrafted with human erythrocytes. The levels of the examples were measured in serial peripheral blood samples obtained from each mouse of the efficacy experiment during the first 23 hrs after the first dose. The area under the curve of levels of compound is used to estimate the exposure in blood during the first 23 hours after the first administration (AUC0-23h).
The effect of Examples 1, 2, 5, 7, 8 and 10 on P. Falciparum Pf3D7^0087/N9 was assessed by microscopy and flow cytometry.
(Flow cytometry measures light scatter and fluorescence of single cells or particles in a stream.)

Data set [2] is described as follows: Equilibrium solubility in Fasted State Simulated Intestinal Fluid (FaSSIF). To be noted: FaSSIF pH 6.5, room temperature, 4 hour equilibration, dynamic range 1-1000 μg/ml.
Data set [3] concerns P. falciparum 3D7A strain parasitized red blood cells. The data set can be described thus: P. falciparum growth inhibition assay Sybr Green. Type of data set: cell-based, Plasmodium falciparum. To be noted: for IC50: Plasmodium falciparum, Erythrocyte, 48 h. The procedure: P. falciparum Growth Inhibition Assay Sybr Green
The parasite growth is determined measuring the staining of the DNA's minor groove with SYBR Green I, which labels the remaining parasites. The DNA-SYBR complex absorbs light reaching the peak at λ=498 nm and emits at a peak of λ=522 nm.
Briefly, a culture of 3D7A strain parasitized red blood cells (RBC) (0.5% parasitemia and 2% haematocrit in RPMI-1640 supplemented with 25 ml albumax and […] hypoxanthine for 500 ml) is exposed to 3-fold serial dilutions of the compound. Plates are incubated 48 h at 37° C., 5% CO2, 5% O2, 90% N2. At 48 h of incubation, SyberGreen I solution (2×) is added and plates are incubated for 30 minutes at 37° C., 5% CO2, 5% O2, 90% N2 and then plates are frozen at −80° C. Then plates are read in the EnVision (EnVision Multilabel Plate Reader, Perkin Elmer). Data (pIC50) are generated by ActivityBase (IDBS) and graphs are checked by Spotfire.
Inhibition of parasite growth in whole cell assay (infected human eritrocites) in vitro is directly linked to reduction of parasitemia in vivo.

Data set [4] is described as follows: Kinetic aqueous solubility in PBS pH 7.4 (HPLC-CAD). Type of data set: physicochemical. To be noted: PBS pH7.4, room temperature, 1 hour equilibration; for solubility at 1 h / solubility kinetic at 1 h: phosphate buffered saline (PBS), pH 7.4, aqueous buffer, kinetic from dmso stock; for solubility kinetic at 1 h: read-out: Concentration; for Solubility: from DMSO stock. As to the method: The kinetic aqueous solubility was measured at room temperature after 1 hour equilibration in aqueous phosphate buffered saline (PBS) at pH7.4, and is determined by measuring the concentration of solute in solution after precipitation from DMSO stock solution.
The sample plate was left to equilibrate for 1 hour at room temperature.
Vacuum filtration was applied to filter the solution into a 96-well collection plate.
The filtrate was analysed by HPLC-CAD (Charged Aerosol Detector).
Calibration standards of Ketoconazole and Primidone were prepared by serial dilutions in DMSO at concentrations ranging from 0.016 to 4.5 mg/ml to produce the calibration curve.

The nature of the next data set: physchem. Particulars: Fasted State Simulated Intestinal Fluid (FaSSIF), pH 6.5, fassif, thermodynamic from solid.
The mark [5] stands for this setting: average, 48 h incubation, SYBR Green I readout, ditrifluoroacetic acid salt.
The mark [6] stands for this setting: range of values, 48 h incubation, SYBR Green I readout, ditrifluoroacetic acid salt.
Setting [7] is: average, 48 h incubation, SYBR Green I readout, dihydrochloride.
Where [8] appears, read: range of values, 48 h incubation, SYBR Green I readout, dihydrochloride.
[9] abbreviates: average, 48 h incubation, SYBR Green I readout, read-out: Average value pIC50 (converted).
The mark [10] stands for this setting: range of values, 48 h incubation, SYBR Green I readout, read-out: Pf3D7 pIC50 (converted).
[11] abbreviates: read-out: Average value pIC50, average (converted), 48 h incubation, SYBR Green I readout.
[12] abbreviates: read-out: Pf3D7 pIC50, range of values (converted), 48 h incubation, SYBR Green I readout.

Structures can show the parent of a compound that is named as a salt. Where two headings read alike, the source gives them in different places.

Data on ten compounds can be found in patent publication US20250122167A1, “Pyrazine Compounds Useful in the Treatment of Parasitic Protozoal Infection” (priority 2021, published 2025).

The solubility is how much of the substance goes into solution per volume. Low values mean little dissolved substance, high ones much dissolved substance. For `NC1(CNC(=O)c2ccc(-c3cncc(-c4cncc(F)c4)n3)cc2)CCC1` [Example 1, N-((1-aminocyclobutyl)methyl)-4-(6-(5-fluoropyridin-3-yl)pyrazin-2-yl)benzamide, ditrifluoroacetic acid salt], in data set [1] (ditrifluoroacetic acid salt), the ED90 mean was found to be 1.28 mg/kg and the AUCED90 mean came to 0.067 mg · h · mL^−1 · day^−1. Also, the FaSSIF solubility in data set [2] (ditrifluoroacetic acid salt) is 429 µg/mL. Further, the “Average value pIC50” value in data set [3] (setting [5]) amounted to 8.50. Further, in data set [3] (setting [6]), the “Pf3D7 pIC50” value is reported as 8.48-8.60. Moreover, in data set [4], the solubility at 1 h was at least 124 µg/mL and the solubility kinetic at 1 h was at least 329 mM.
In data set [1] (dihydrochloride), `NC1(CNC(=O)c2ccc(-c3cncc(-c4cncc(F)c4)n3)cc2)CCC1` [Example 2, N-((1-aminocyclobutyl)methyl)-4-(6-(5-fluoropyridin-3-yl)pyrazin-2-yl)benzamide, dihydrochloride] registered an ED90 mean of 1.14 mg/kg and an AUCED90 mean of 0.121 mg · h · mL^−1 · day^−1. The “Average value pIC50” value in data set [3] (setting [7]) is recorded as 8.50. Also, the “Pf3D7 pIC50” value in data set [3] (setting [8]) is given as 8.47-8.63. For the same compound, in data set [4], the solubility at 1 h was at least 126 µg/mL and the solubility kinetic at 1 h was at least 335 mM. The solubility at 4 h in “physchem” is 398 µg/mL.
The term Solubility denotes how much of the substance goes into solution per volume. A higher Solubility goes with a readily soluble substance. With `NC1(CNC(=O)c2ccc(-c3cncc(-c4cncc(F)c4)n3)cc2)CCC1` [Example 3, N-((1-aminocyclobutyl)methyl)-4-(6-(5-fluoropyridin-3-yl)pyrazin-2-yl)benzamide, sulfuric acid salt], the IC50 in data set [3] (setting [9]) was 3.16 nM; in data set [3] (setting [10]) it was 2.51 to 5.01 nM. In data set [4], this compound had a Solubility of at least 94.7 µg/mL.
In data set [2], `NC1(CNC(=O)c2ccc(-c3cncc(-c4cncc(F)c4)n3)cc2)CCC1` [Example 4, N-((1-aminocyclobutyl)methyl)-4-(6-(5-fluoropyridin-3-yl)pyrazin-2-yl)benzamide] showed a FaSSIF solubility above 1000 µg/mL. For the same compound, in data set [3] (average, 48 h incubation, SYBR Green I readout), the “Average value pIC50” value is 8.60. Further, in data set [3] (range of values, 48 h incubation, SYBR Green I readout), the “Pf3D7 pIC50” value is on record as 8.54-8.76. The compound also displayed a Solubility in data set [4] of at least 129.8 µg/mL.
As for `NC1(CNC(=O)c2ccc(-c3cncc(-c4cncc(F)c4)n3)cc2)CC1` [Example 5, N-((1-aminocyclopropyl)methyl)-4-(6-(5-fluoropyridin-3-yl)pyrazin-2-yl)benzamide, dihydrochloride], in data set [1], the ED90 mean is 1.04 mg/kg and the AUCED90 mean is recorded as 0.13 mg · h · mL^−1 · day^−1. Moreover, the FaSSIF solubility in data set [2] (dihydrochloride) is 380 µg/mL. Also, in data set [3] (setting [11]), the IC50 is 3.16 nM. Also, the IC50 in data set [3] (setting [12]) is 2.51 to 4.57 nM. In data set [4], the solubility at 1 h was at least 114 µg/mL and the solubility kinetic at 1 h was at least 313 mM.
Turning to `NC1(CNC(=O)c2ccc(-c3cncc(-c4cncc(F)c4)n3)cc2)CC1` [Example 6, N-((1-aminocyclopropyl)methyl)-4-(6-(5-fluoropyridin-3-yl)pyrazin-2-yl)benzamide, ditrifluoroacetic acid salt], in data set [4], the solubility at 1 h is at least 200 µg/mL and the solubility kinetic at 1 h was at least 549 mM. Also, the solubility at 4 h in “physchem” was 339 µg/mL.
As to `CC(C)(N)CNC(=O)c1ccc(-c2cncc(-c3cncc(F)c3)n2)cc1` [Example 7, N-(2-amino-2-methylpropyl)-4-(6-(5-fluoropyridin-3-yl)pyrazin-2-yl)benzamide, ditrifluoroacetic acid salt], in data set [1], the ED90 mean worked out at 1.74 mg/kg and the AUCED90 mean is 0.05 mg · h · mL^−1 · day^−1. Also, the IC50 in data set [3] (setting [11]) was 7.94 nM. The IC50 in data set [3] (setting [12]) is 7.08 to 8.91 nM. In addition, in data set [4], the solubility at 1 h was at least 84.4 µg/mL and the solubility kinetic at 1 h was at least 231 mM. Further, the solubility at 4 h in “physchem” was 742 µg/mL.
In data set [1] (dihydrochloride), `N[C@@H]1CCCC[C@@H]1NC(=O)c1ccc(-c2cncc(-c3cncc(F)c3)n2)cc1` [Example 8, N-((1S,2R)-2-aminocyclohexyl)-4-(6-(5-fluoropyridin-3-yl)pyrazin-2-yl)benzamide, dihydrochloride] yielded an ED90 mean of 1.59 mg/kg and an AUCED90 mean of 0.26 mg · h · mL^−1 · day^−1. Moreover, the FaSSIF solubility in data set [2] (dihydrochloride) was above 1000 µg/mL. Also, the “Average value pIC50” value in data set [3] (setting [7]) was determined as 8.40. The “Pf3D7 pIC50” value in data set [3] (setting [8]) is 8.33-8.6. In data set [4], the solubility at 1 h is at least 106 µg/mL and the solubility kinetic at 1 h is at least 271 mM.
As for `N[C@@H]1CCCC[C@@H]1NC(=O)c1ccc(-c2cncc(-c3cncc(F)c3)n2)cc1` [Example 9, N-((1S,2R)-2-aminocyclohexyl)-4-(6-(5-fluoropyridin-3-yl)pyrazin-2-yl)benzamide, ditrifluoroacetic acid salt], in data set [3] (setting [5]), the “Average value pIC50” value turned out to be 8.60. The “Pf3D7 pIC50” value in data set [3] (setting [6]) is recorded as 8.53-8.60. Also, in data set [4], the solubility at 1 h was 115 µg/mL and the solubility kinetic at 1 h was found to be 293 mM. For the same compound, the solubility at 4 h in the data set “physchem” was 789 µg/mL.
As for `N[C@@H]1CCCC[C@@H]1NC(=O)c1ccc(-c2cncc(-c3cncc(F)c3)n2)cc1` [Example 10, N-((1S,2R)-2-aminocyclohexyl)-4-(6-(5-fluoropyridin-3-yl)pyrazin-2-yl)benzamide], in data set [1], the ED90 mean turned out to be 0.95 mg/kg and the AUCED90 mean came to 0.20 mg · h · mL^−1 · day^−1. In addition, the FaSSIF solubility in data set [2] is 941 µg/mL. Also, the IC50 in data set [3] (setting [9]) is 3.16 nM. The IC50 in data set [3] (setting [10]) is 3.09 to 3.8 nM. In data set [4], this compound gave a Solubility of at least 136.2 µg/mL.
